Experiment: Reductive stability in the presence of glutathione (HPLC)
Assay type: physicochemical
Conditions: GSH 5 mM, 24 h, ambient temperature, HPLC analysis
Procedure: Reductive stability of 15 c, 15 f and 20 a in the presence of the cellular reductant glutathione (5 mM) was confirmed by HPLC analysis (Figure S5, Table S2). For the cell‐based activity assay, we illuminated the compounds solved in DMSO with UV light (365 nm) prior to incubation with the cells. […] As expected, 15 c and 15 f increased the levels of acetylated lysines H3K18 and H3K56, which are both affirmed substrates of Sirt2. In addition, we found H4K8 hyperacetylation even though this site is usually not affected by sirtuin catalysed deacetylation, indicating a further mode of action. […] In Figure 6, we show the relative results, whereby the acetylation product was related to total target protein and to the vehicle control. Again, we found an increase in acetylated histones induced by 15 c and 15 f which proves activity of these two compounds in living cells.
Glutathione (GSH) is able to reduce certain azobenzenes yielding the respective hydrazines.
Therefore, we determined the reductive stability of 15c, 15f and 20a prior to examination of the biological activity in a cell-based assay. […]
Table S2: Relative percentages (%) of GSH and the respective photoisomers extracted from the HPLC analysis. Samples were analyzed right after addition of GSH (0 h) and after 24 h of incubation at ambient temperature. […]
Fluorescence-Based Activity Assay (ZMAL-Assay)
The influence of the synthesized compounds on the deacetylase activity of the class I sirtuins Sirt1–3 was determined in a homogenous fluorescence-based enzyme assay, using the artificial substrate Z-(Ac)Lys-AMC (ZMAL). […]
The latter is subsequently cleaved by tryptic digestion, releasing 7-amino-4-methylcoumarin (AMC), excitation of which leads to a fluorescent read out (λex=390 nm; λem=460 nm). […]
contribute to the fluorescence signal. Therefore, the fluorescence intensity is proportional to the activity of the respective sirtuin.
After subtraction of the blank fluorescence signal (without enzyme) from the signal of the respective probe, the residual signal intensity is related to a 100 % conversion control (AMC),

Reductive stability in the presence of glutathione | Compound
confirmed | CC(C)(C)OC(=O)NCc1ccc(/N=N/c2cncc(C(N)=O)c2)cc1 [15 c]
confirmed | CCCCCCCCCC(=O)NCc1ccc(/N=N/c2cncc(C(N)=O)c2)cc1 [15 f]
confirmed | NC(=O)c1cncc(OCc2cccc(/N=N/c3ccc(OCc4ccccc4)cc3)c2)c1 [20 a]
